The results in this text go back to PubChem BioAssay (NCI).

Experiment in all cases: NCI-60 cell line screen, 48 h
The test system of test [1] is DLD-1 colon.
Test [2] relates to DMS 273 small cell lung.
Test [3] deals with K-562 leukemia.
Test [4] deals with NCI-H226 lung.
Test [5] relates to SF-539 CNS.
Test [6] has as its system SK-MEL-2 melanoma.
Test [7] concerns DMS 114 small cell lung.
In test [8] the test system is HOP-92 NSCLC.
The test system of test [9] is SNB-78 CNS.
Test [10] concerns MCF7 breast.
Test [11] concerns T-47D breast.

SMILES strings stand for the structures. Where “and” joins values, the source holds several entries; their conditions need not be identical. Equal values may be shown once.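 Briefly, cells in 96-well plates were exposed to five compound concentrations for 48 h, and endpoints were estimated by linear interpolation. GI50: concentration for 50% inhibition of growth. The concentration for full growth arrest is given as TGI.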

In the case of `COc1ccc(S(=O)(=O)NNS(C)(=O)=O)cc1OC`, the TGI in [1], in test [2], in [3], in test [4], in [5] and in [6] was greater than 100 µM throughout.
Consider `C=C(/C=C/C=C(\CO)CCC=C(C)C)[C@H]1CCC2([C@H](CCCO)/C(=C(/C)C=O)CC[C@]2(C)O)[C@H]1O` (some centres not stated), for which the TGI in test [1], in test [7], in test [2], in test [8], in [3] and in test [5] was greater than 100 µM each time. Further, the TGI in test [6] and in [9] was greater than 100 µM throughout.
`CN(C)CN(C)c1nc(N(C)C)nc(N(C)C)n1`: the TGI in test [1], in test [7], in test [2], in test [8], in test [3] and in test [5] was greater than 100 µM throughout. In addition, the TGI in test [6] and in test [9] was greater than 100 µM throughout.
Consider `O=C(CC/C(CC(=O)c1ccc(Cl)cc1)=N\O)Nc1cccc(Cl)c1`, for which the TGI in [1], in test [7], in test [2], in test [3], in test [5] and in test [6] was greater than 100 µM in each case. The molecule also yielded a TGI in [9] greater than 100 µM.
For `Cc1c(C(=O)/C=C/c2ccc3c(c2)OCO3)[n+](=O)c2ccccc2n1[O-]`, the TGI in [1] is greater than 100 µM; in test [7], 48.8 µM; in [2] it was 52.6 µM; in test [8], 69.7 µM; in test [3], greater than 100 µM; in test [4], 60.9 µM. Moreover, the TGI in test [5] was 49.3 µM; in test [9], greater than 100 µM.
For `NC(=O)C1C(=O)Oc2cccnc21` (configuration not stated), the TGI in [1], in test [7], in [2], in test [3], in test [4] and in [5] was greater than 100 µM throughout.
In the case of `Cc1ccc(/C=C2\CCCC(C(NO)c3ccc(C)cc3)C2=NO)cc1` (configuration not stated), the TGI in test [1], in test [7], in test [2], in test [3], in [5] and in test [6] was greater than 100 µM in each case. The molecule also had a TGI in [9] greater than 100 µM.
Regarding `COc1ccc(C2NC(c3ccc(OC)cc3)C(C)C(=O)C2C)cc1` (configuration not stated), the TGI in test [1], in test [7], in test [2], in test [8], in test [3] and in test [5] was greater than 100 µM each time. Besides, the TGI in [6] and in [9] was greater than 100 µM each time.
As for `O=C(Cn1ccnc1[N+](=O)[O-])NCc1ccc(F)cc1`, the TGI in test [7], in test [2], in test [8], in test [3], in test [4] and in test [5] was greater than 100 µM throughout. In [6], this molecule had a TGI greater than 100 µM.
On to `COc1cc2ccc(CC(=O)O)cc2cc1OC`, for which the TGI in [1], in test [7], in [2], in [3], in test [4] and in test [6] was greater than 100 µM each time. This molecule also showed a TGI in test [9] greater than 100 µM.
As to `O=C(Nc1c(Cl)cc([N+](=O)[O-])cc1Cl)C(=O)C(C(=O)c1ccncc1)C1OC(=O)c2ccccc21` (configuration not stated), the TGI in test [1], in [7], in [2], in test [8], in test [3] and in test [4] was greater than 100 µM in each case. For the same molecule, the TGI in test [9] is greater than 100 µM.
On to `CCOc1ccccc1NC(=O)C1=C(C)NC(C)=C(C(=O)Nc2ccccc2OCC)C1c1ccc2c(c1)OCO2`, for which the TGI is greater than 100 µM in test [1]; greater than 100 µM in test [7]; 56 µM in test [8]; 70.3 µM in test [3]; greater than 100 µM in test [4]; 84.7 µM in [5]. Further, the TGI in [6] was 55.3 µM; in test [9] it was 95.6 µM.
For `CC(=O)O[C@H]1C(=O)[C@@]2(C)C([C@H](OC(=O)c3ccccc3)[C@]3(O)C[C@H](OC(=O)[C@H](O)[C@@H](NC(=O)c4ccc(Cl)cc4)c4ccccc4)C(C)=C1C3(C)C)C1(OC(C)=O)CO[C@@H]1C[C@@H]2O` (some centres not stated), the TGI is greater than 100 µM in test [1]; > 25 µM and 12.5 µM in test [3]; 25 µM in test [10]; 25 µM in test [4]; 0.273 µM and 0.0407 µM in test [5]; 25 µM in [11]. The GI50 in [5] was 0.0119 µM.
As to `O=C([CH-]C(=O)c1ccccc1)c1ccccc1.[CH2-]C.[CH2-]C.[Tl+3]`, the GI50 in [8] is 21.6 µM; in test [3], 9.92 µM; in [10] it was 7.73 µM; in test [4], 0.0266 µM; in test [5], 23.2 µM; in test [6], 31.6 µM. The GI50 in test [11] is 17 µM. For the same molecule, the TGI is greater than 72.8 µM in test [8]; 59.6 µM in test [3]; greater than 100 µM in test [10]; 2.38 µM in test [4]; 86 µM in test [5]; greater than 92.4 µM in [6]. This molecule also displayed a TGI in test [11] greater than 100 µM.
Turning to `NCC[PH+](c1ccccc1)c1ccccc1.NCC[PH+](c1ccccc1)c1ccccc1.[Cl-].[Pt+4]`, the GI50 in test [8] is greater than 100 µM; in test [3], 26.5 µM; in [10] it was greater than 100 µM; in test [4] it was greater than 100 µM; in test [5], greater than 100 µM; in test [6], greater than 100 µM. In addition, in test [11], the GI50 was greater than 100 µM. Also, the TGI was greater than 100 µM in test [8]; greater than 84.7 µM in test [3]; greater than 100 µM in [10]; greater than 100 µM in [4]; greater than 100 µM in test [5]; greater than 100 µM in [6]. In test [11], the TGI is greater than 100 µM.
